# Results as given in ChEMBL document CHEMBL1123887, “Fluoro ketone containing peptides as inhibitors of human renin” (J Med Chem, 1987).
# Numbered stars: 1 amine (or outer) side, 2 acyl side, 3 side chain; on linkers, the order of the positions; unused ones are H or OH. Square brackets hold non-standard residues; d marks the D form. Peptide text beside a SMILES is read from it. * marks the point of attachment. X2 = CC(C)C[C@H](N[*:1])[C@@H](O)C(F)(F)C(=O)[*:2]; X1 = CC(C)C[C@H](N[*:1])C(=O)C(F)(F)C(=O)[*:2]; X3 = CC(C)C[C@H](N[*:1])C(=O)CC(=O)[*:2]; Sta = CC(C)C[C@H](N)[C@@H](O)CC(=O)O; Boc = CC(C)(C)OC(=O)*
# Biological target: T1, Renin (Homo sapiens, UniProt P00797)
# T1 sequence (P00797 whole entry): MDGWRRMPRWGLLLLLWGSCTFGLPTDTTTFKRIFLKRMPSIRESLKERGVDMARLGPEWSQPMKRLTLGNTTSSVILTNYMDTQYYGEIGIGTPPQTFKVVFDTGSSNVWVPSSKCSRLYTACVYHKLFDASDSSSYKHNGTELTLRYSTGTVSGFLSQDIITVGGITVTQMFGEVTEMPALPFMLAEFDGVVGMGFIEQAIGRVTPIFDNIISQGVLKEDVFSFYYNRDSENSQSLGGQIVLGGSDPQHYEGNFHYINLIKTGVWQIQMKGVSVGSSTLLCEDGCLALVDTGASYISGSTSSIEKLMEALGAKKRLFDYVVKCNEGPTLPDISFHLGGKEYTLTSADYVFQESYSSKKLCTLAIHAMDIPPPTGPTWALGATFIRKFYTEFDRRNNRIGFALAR
# Assay: Compound was evaluated for inhibitory activity against human kidney renin
# Type: tissue-based
row,Compound,Ki
1,CC(C)C[C@H](NC(=O)C(F)(F)[C@H](O)[C@H](CC(C)C)NC(=O)[C@@H](/C=C/[C@H](Cc1ccccc1)NC(=O)OC(C)(C)C)Cc1ccccc1)C(=O)N[C@@H](Cc1ccccc1)C(N)=O,12000 nM
2,COC(=O)[C@@H](/C=C/[C@H](CC(C)C)NC(=O)C(F)(F)C(=O)[C@H](CC(C)C)NC(=O)[C@H](Cc1ccccc1)NC(=O)[C@H](Cc1ccccc1)NC(=O)OC(C)(C)C)Cc1ccccc1,1200 nM
3,COC(=O)[C@@H](/C=C/[C@H](CC(C)C)NC(=O)C(F)(F)[C@H](O)[C@H](CC(C)C)NC(=O)[C@H](Cc1ccccc1)NC(=O)[C@H](Cc1ccccc1)NC(=O)OC(C)(C)C)Cc1ccccc1,16000 nM
4,CC(C)C[C@H](NC(=O)C[C@H](O)[C@H](CC(C)C)NC(=O)[C@H](Cc1ccccc1)NC(=O)[C@H](Cc1ccccc1)NC(=O)OC(C)(C)C)C(=O)N[C@@H](Cc1ccccc1)C(N)=O (Boc-FF[Sta]LF-NH2),52 nM
5,CC(C)C[C@H](NC(=O)C(F)(F)C(=O)[C@H](CC(C)C)NC(=O)[C@H](Cc1ccccc1)NC(=O)[C@H](Cc1ccccc1)NC(=O)OC(C)(C)C)C(=O)N[C@@H](Cc1ccccc1)C(N)=O (Boc-FF[X1]LF-NH2),7 nM
6,CC(C)C[C@H](NC(=O)C(F)(F)[C@H](O)[C@H](CC(C)C)NC(=O)[C@H](Cc1ccccc1)NC(=O)[C@H](Cc1ccccc1)NC(=O)OC(C)(C)C)C(=O)N[C@@H](Cc1ccccc1)C(N)=O (Boc-FF[X2]LF-NH2),120 nM
7,CC(C)C[C@H](NC(=O)[C@H](Cc1ccccc1)NC(=O)[C@H](Cc1ccccc1)NC(=O)OC(C)(C)C)C(=O)CC(=O)N[C@@H](CC(C)C)C(=O)N[C@@H](Cc1ccccc1)C(N)=O (Boc-FF[X3]LF-NH2),154 nM
